≈ marks a conversion by molar mass, not a printed value.
How the values were obtained:
Test in all cases: microbe, parasite or virus in culture
[1] = tested on: C. glabrata; format: cell-based, Candida glabrata; settings: 48 h
Excerpt: (§1) Microbial strains: Microbial strains were procured from National Culture Collection of Pathogenic Fungi (NCCPF) at the Postgraduate Institute of Medical Education & Research (PGIMER), Chandigarh and Microbial Type Culture Collection and Gene bank (MTCC) at the Institute of Microbial Technology (IMTECH), Chandigarh, India. Peptides were screened against five different strains of fungi: viz. Candida albicans (NCCPF400034), Candida glabrata (MTCC 3019), Candida parapsilosis (NCCPF 440002), Candida krusei (NCCPF 440002) and Cryptococcus neoformans (NCCPF250316), and five strains of bacteria: viz. Escherichia coli (MTCC 2961), Staphylococcus aureus (MTCC 3160), Enterococcus faecalis (MTCC 439), Streptococcus pyogenes (MTCC 442) and Pseudomonas aeruginosa (MTCC 3542).
(§2) Growth media: Antifungal susceptibility testing was carried out using standard broth microdilution assays as per the Clinical and Laboratory Standards Institute (CLSI) guidelines for fungi. RPMI 1640 (Sigma), yeast extract, peptone and dextrose (YPED, Himedia) were used as the incubation broths. The cells were diluted to a cell density of 10^3 colony forming unit (CFU/mL) and incubated at 30 °C for 48 h. Furthermore, Muller Hinton (Himedia) media was utilized for bacterial strains and antibacterial activity was evaluated per CLSI guidelines for bacteria. Bacterial cells were diluted to a cell density of 10^5 CFU/mL and incubated at 37 °C for 24 h. Amphotericin B (Himedia, India) and rifampicin (Himedia, India) were used as standard drugs for the evaluation of activity against all the fungal and bacterial strains, respectively.
(§3) The stock solutions of peptides (2 mg/mL) were prepared in DMSO. Specific amounts of peptide from stock solution were added to a 96-well microtiter plate containing 100 μL of growth media and then serially diluted two-fold. A further 100 μL of growth media containing microbial cells were added to each well and incubated at 30–37 °C for 24–48 h. The optical density (OD) was measured at 600 nm using a BioStack Ready (BioTek Instruments, Winooski, VT, USA) microplate reader to analyze microbial growth inhibition, and IC50 and MIC values were calculated. To visualize the growth and inhibition pattern, a solution of 3-(4,5-dimethylthiazol-2-yl)-2,5-diphenyltetrazolium bromide (MTT) in water was added to the plate and incubated for 2–3 h. MTT reacts with the mitochondrial dehydrogenases, which are present only in a viable cell, to give blue colored formazan crystals. Therefore, a darker color indicates a high number of viable cells; however, non-viable cells appear pale or colorless.

[2] = tested on: C. albicans; format: cell-based, Candida albicans; settings: 48 h
Excerpt: as §1, §2, §3

[3] = tested on: C. neoformans; format: cell-based, Cryptococcus neoformans
Excerpt: as §1, §2, §3

[4] = tested on: C. krusei; format: cell-based, Candida krusei; settings: 48 h
Excerpt: as §1, §2, §3

[5] = tested on: C. parapsilosis; format: cell-based, Candida parapsilosis; settings: 48 h
Excerpt: as §1, §2, §3

| SMILES | IC50 [1] [µg/mL] | MIC [1] [µg/mL] | IC50 [2] [µg/mL] | MIC [2] [µg/mL] | IC50 ([3]; 48 h) [µg/mL] | MIC ([3]; 48 h) [µg/mL] | IC50 [4] [µg/mL] | MIC [4] [µg/mL] | IC50 [5] [µg/mL] | MIC [5] [µg/mL] | MIC ([3]; C. neoformans, lowest test concentration with no detectable growth) [µg/mL] | Fold reduction of activity ([3]; C. neoformans, on replacing methyl of the tert-butyl moiety with fluorine) [fold] |
| --- | --- | --- | --- | --- | --- | --- | --- | --- | --- | --- | --- | --- |
| COC(=O)[C@H](Cc1ncn(Cc2ccccc2)c1I)NC(=O)[C@H](Cc1c[nH]c2ccccc12)NC(=O)OC(C)(C)C [9a] | >35.2 | >64.0 | >35.2 | >64.0 | 17.78 (≈ 26.5 µM) | 32.34 (≈ 48.2 µM) | >35.2 | >64.0 | >35.2 | >64.0 |  |  |
| COC(=O)[C@H](Cc1ncn(Cc2ccc(C(C)(C)C)cc2)c1I)NC(=O)[C@H](Cc1c[nH]c2ccccc12)NC(=O)OC(C)(C)C [9b] | >35.2 | >64.0 | >35.2 | >64.0 | >35.2 | >64.0 | >35.2 | >64.0 | >35.2 | >64.0 |  |  |
| COC(=O)[C@H](Cc1ncn(Cc2ccc(C(C)C)cc2)c1I)NC(=O)[C@H](Cc1c[nH]c2ccccc12)NC(=O)OC(C)(C)C [9c] | >35.2 | >64.0 | >35.2 | >64.0 | 20.39 (≈ 28.6 µM) | 37.08 (≈ 52 µM) | >35.2 | >64.0 | >35.2 | >64.0 |  |  |
| COC(=O)[C@H](Cc1ncn(Cc2cccc(C(F)(F)F)c2)c1I)NC(=O)[C@H](Cc1c[nH]c2ccccc12)NC(=O)OC(C)(C)C [9e] | >35.2 | >64.0 | >35.2 | >64.0 | 20.71 (≈ 28 µM) | 37.65 (≈ 50.9 µM) | >35.2 | >64.0 | >35.2 | >64.0 |  |  |
| COC(=O)[C@H](Cc1ncn(Cc2ccccc2C(F)(F)F)c1I)NC(=O)[C@H](Cc1c[nH]c2ccccc12)NC(=O)OC(C)(C)C [9f] | >35.2 | >64.0 | >35.2 | >64.0 | 30.56 (≈ 41.3 µM) | 55.57 (≈ 75.1 µM) | >35.2 | >64.0 | >35.2 | >64.0 |  |  |
| COC(=O)[C@H](Cc1ncn(Cc2ccc(C(F)(F)F)cc2)c1I)NC(=O)[C@H](Cc1c[nH]c2ccccc12)NC(=O)OC(C)(C)C [9g] | >35.2 | >64.0 | >35.2 | >64.0 | >35.2 | >64.0 | >35.2 | >64.0 | >35.2 | >64.0 |  |  |
| COC(=O)[C@H](Cc1ncn(Cc2ccc([N+](=O)[O-])cc2)c1I)NC(=O)[C@H](Cc1c[nH]c2ccccc12)NC(=O)OC(C)(C)C [9h] | >35.2 | >64.0 | >35.2 | >64.0 | >35.2 | >64.0 | >35.2 | >64.0 | >35.2 | >64.0 |  |  |
| COC(=O)[C@H](Cc1ncn(Cc2ccc(F)c(F)c2)c1I)NC(=O)[C@H](Cc1c[nH]c2ccccc12)NC(=O)OC(C)(C)C [9i] | >35.2 | >64.0 | >35.2 | >64.0 | 17.62 (≈ 24.9 µM) | 32.05 (≈ 45.3 µM) | >35.2 | >64.0 | >35.2 | >64.0 |  |  |
| COC(=O)[C@H](Cc1ncn(Cc2cc(F)cc(F)c2)c1I)NC(=O)[C@H](Cc1c[nH]c2ccccc12)NC(=O)OC(C)(C)C [9j] | >35.2 | >64.0 | >35.2 | >64.0 | 17.73 (≈ 25.1 µM) | 32.25 (≈ 45.6 µM) | >35.2 | >64.0 | >35.2 | >64.0 |  |  |
| COC(=O)[C@H](Cc1ncn(Cc2cccc(F)c2)c1I)NC(=O)[C@H](Cc1c[nH]c2ccccc12)NC(=O)OC(C)(C)C [9k] | >35.2 | >64.0 | >35.2 | >64.0 | 18.16 (≈ 26.3 µM) | 32.02 (≈ 46.4 µM) | >35.2 | >64.0 | >35.2 | >64.0 |  |  |
| COC(=O)[C@H](Cc1ncn(Cc2cccc(Cl)c2)c1I)NC(=O)[C@H](Cc1c[nH]c2ccccc12)NC(=O)OC(C)(C)C [9l] | >35.2 | >64.0 | >35.2 | >64.0 | 18.59 (≈ 26.3 µM) | 33.80 (≈ 47.9 µM) | >35.2 | >64.0 | >35.2 | >64.0 |  |  |
| COC(=O)[C@H](Cc1ncn(Cc2cccc(Br)c2)c1I)NC(=O)[C@H](Cc1c[nH]c2ccccc12)NC(=O)OC(C)(C)C [9m] | >35.2 | >64.0 | >35.2 | >64.0 | 18.63 (≈ 24.8 µM) | 33.88 (≈ 45.1 µM) | >35.2 | >64.0 | >35.2 | >64.0 |  |  |

More lines, main results first:

| IC50 [1] [µg/mL] | MIC [1] [µg/mL] | IC50 [2] [µg/mL] | MIC [2] [µg/mL] | IC50 ([3]; 48 h) [µg/mL] | MIC ([3]; 48 h) [µg/mL] | IC50 [4] [µg/mL] | MIC [4] [µg/mL] | IC50 [5] [µg/mL] | MIC [5] [µg/mL] | MIC ([3]; C. neoformans, lowest test concentration with no detectable growth) [µg/mL] | SMILES | Fold reduction of activity ([3]; C. neoformans, on replacing methyl of the tert-butyl moiety with fluorine) [fold] |
| --- | --- | --- | --- | --- | --- | --- | --- | --- | --- | --- | --- | --- |
| >35.2 | >64.0 | >35.2 | >64.0 | 23.58 (≈ 29.6 µM) | 42.87 (≈ 53.8 µM) | >35.2 | >64.0 | >35.2 | >64.0 |  | COC(=O)[C@H](Cc1ncn(Cc2cccc(I)c2)c1I)NC(=O)[C@H](Cc1c[nH]c2ccccc12)NC(=O)OC(C)(C)C [9n] |  |
| >35.2 | >64.0 | >35.2 | >64.0 | >35.2 | >64.0 | >35.2 | >64.0 | >35.2 | >64.0 |  | COC(=O)[C@H](Cc1ncn(Cc2ccccc2I)c1I)NC(=O)[C@H](Cc1c[nH]c2ccccc12)NC(=O)OC(C)(C)C [9o] |  |
| >35.2 | >64.0 | >35.2 | >64.0 | 17.68 (≈ 30.9 µM) | 32.15 (≈ 56.3 µM) | >35.2 | >64.0 | >35.2 | >64.0 |  | COC(=O)[C@H](Cc1ncn(Cc2ccccc2)c1I)NC(=O)[C@@H](N)Cc1c[nH]c2ccccc12 [10a] |  |
| >35.2 | >64.0 | >35.2 | >64.0 | 17.70 (≈ 27.7 µM) | 32.18 (≈ 50.3 µM) | >35.2 | >64.0 | >35.2 | >64.0 |  | COC(=O)[C@H](Cc1ncn(Cc2ccccc2C(F)(F)F)c1I)NC(=O)[C@@H](N)Cc1c[nH]c2ccccc12 [10f] |  |
| >35.2 | >64.0 | >35.2 | >64.0 | 13.53 (≈ 21.2 µM) |  | >35.2 | >64.0 | >35.2 | >64.0 | 24.6 (≈ 38.5 µM) | COC(=O)[C@H](Cc1ncn(Cc2ccc(C(F)(F)F)cc2)c1I)NC(=O)[C@@H](N)Cc1c[nH]c2ccccc12 [10g] | 2.6 |

— PMC9821961, “Ring-Modified Histidine-Containing Cationic Short Peptides Exhibit Anticryptococcal Activity by Cellular Disruption” (Molecules, 2022)
